Read-outs that look alike come from different tables or passages of the source.
Columns and labels:
[1] = Phase I dose escalation (3 + 3): DLTs, MTD, recommended dose; type: in vivo
Description: BEZ235 was administered orally as a single agent on a continuous qd or bid dosing schedule. […] Furthermore, in the previous study, a granule formulation (BEZ235 SDS sachet) was developed because of difficulties in swallowing the large size capsules of the investigational drug. The ingredients of this new formulation, which are dispensed as granules contained within a sachet, are essentially the same as the capsule. […] Decisions regarding dose escalation were based on the safety profile, particularly DLTs, observed in the first cycle of treatment for each patient.
Safety assessments consisted of monitoring and recording of all AEs, including laboratory abnormalities and vital signs. DLTs were defined as an AE or a laboratory abnormality assessed as related to the study drug and occurring within the first 28 days of treatment (Cycle 1), as defined in Supplemental Table S1.

[2] = all formulations and dose levels tested (≥ 100 mg), qd; Western oncology patients; cited from earlier work
[3] = test system: S6 phosphorylation (pS6); test: pS6 in normal skin samples (PD biomarker); type: in vivo, Japanese patients; conditions: 400 mg bid; 3/6 patients; baseline vs end of Cycle 1
[4] = Plasma pharmacokinetics (LC–MS/MS, non-compartmental analysis); type: in vivo, Japanese patients; conditions: for AUC(0-inf) / AUC(0-t) / Cmax / Tmax: human, plasma, oral; for AUC(0-inf): read-out: AUCinf, Median; for Cmax: read-out: Cmax, Median; for Tmax: read-out: Tmax, Median
Description: The PK parameters were determined by non-compartmental analysis using Phoenix WinNonlin 6.2® (Pharsight, Mountain View, CA).

[5] = 400 mg, Cycle 1 Day 1, 400 mg bid, n = 7
[6] = 400 mg, Cycle 1 Day 1, 400 mg qd, n = 3
[7] = 400 mg, Cycle 1 Day 8, 400 mg bid, n = 6
[8] = 400 mg, Cycle 1 Day 8, 400 mg qd, n = 3
[9] = 400 mg, Cycle 1 Day 28, 400 mg bid, n = 4
[10] = 400 mg, Cycle 1 Day 28, 400 mg qd, n = 3
[11] = 800 mg, Cycle 1 Day 1, 800 mg qd, n = 3
[12] = 800 mg, Cycle 1 Day 8, 800 mg qd, n = 3

## Cn1c(=O)n(-c2ccc(C(C)(C)C#N)cc2)c2c3cc(-c4cnc5ccccc5c4)ccc3ncc21 [BEZ235]
[1]; human, in vivo, 28 days
  recommended dose (RD): 1000 mg
[1]; in vivo
  tolerability of 400 mg bid: considered as a tolerable dose
[1]; qd dosing schedule
  maximum clinically tolerable dose: 1200 mg
[1]; qd dosing, highest dose that causes DLT in no more than one out of six patients in Cycle 1
  MTD: not reached
[2]
  bioavailability: low bioavailability
[3]
  samples with reduction of pS6 in normal skin: 50%
[4]; 400 to 1400 mg qd
  dose dependence of Cmax and AUC: appeared to increase in a dose-dependent manner
[4]; at most of the visits and doses
  inter-individual variability, coefficient of variation on the AUC and Cmax: greater than 100%
[4]; 400 mg, Cycle 1 Day 1, 400 mg bid, n = 2
  AUC(0-inf): 2000 ng·h/mL
[4]; 400 mg, Cycle 1 Day 1, 400 mg bid, n = 4, read-out: AUC0 − 24, Median
  AUC(0-t): 1760 ng·h/mL
[4]; 400 mg, Cycle 1 Day 1, 400 mg bid, n = 7, read-out: AUClast, Median
  AUC(0-t): 2280 ng·h/mL
[4]; [5]
  Cmax: 301 ng/mL
  Tmax: 6 h
[4]; 400 mg, Cycle 1 Day 1, 400 mg qd, n = 2
  AUC(0-inf): 978 ng·h/mL
[4]; 400 mg, Cycle 1 Day 1, 400 mg qd, n = 3, read-out: AUC0 − 24, Median
  AUC(0-t): 1040 ng·h/mL
[4]; 400 mg, Cycle 1 Day 1, 400 mg qd, n = 3, read-out: AUClast, Median
  AUC(0-t): 1040 ng·h/mL
[4]; [6]
  Cmax: 135 ng/mL
  Tmax: 4 h
[4]; 400 mg, Cycle 1 Day 8, 400 mg bid, n = 1
  AUC(0-inf): 2790 ng·h/mL
[4]; 400 mg, Cycle 1 Day 8, 400 mg bid, n = 5, read-out: AUC0 − 24, Median
  AUC(0-t): 10700 ng·h/mL
[4]; 400 mg, Cycle 1 Day 8, 400 mg bid, n = 6, read-out: AUClast, Median
  AUC(0-t): 9700 ng·h/mL
[4]; [7]
  Cmax: 1050 ng/mL
  Tmax: 4 h
[4]; 400 mg, Cycle 1 Day 8, 400 mg qd, n = 2
  AUC(0-inf): 14300 ng·h/mL
[4]; 400 mg, Cycle 1 Day 8, 400 mg qd, n = 3, read-out: AUC0 − 24, Median
  AUC(0-t): 7350 ng·h/mL
[4]; 400 mg, Cycle 1 Day 8, 400 mg qd, n = 3, read-out: AUClast, Median
  AUC(0-t): 7350 ng·h/mL
[4]; [8]
  Cmax: 754 ng/mL
  Tmax: 4 h
[4]; 400 mg, Cycle 1 Day 28, 400 mg bid, n = 1
  AUC(0-inf): 2660 ng·h/mL
[4]; 400 mg, Cycle 1 Day 28, 400 mg bid, n = 3, read-out: AUC0 − 24, Median
  AUC(0-t): 29400 ng·h/mL
[4]; 400 mg, Cycle 1 Day 28, 400 mg bid, n = 4, read-out: AUClast, Median
  AUC(0-t): 34100 ng·h/mL
[4]; [9]
  Cmax: 3650 ng/mL
  Tmax: 4 h
[4]; 400 mg, Cycle 1 Day 28, 400 mg qd, n = 3, read-out: AUC0 − 24, Median
  AUC(0-t): 8920 ng·h/mL
[4]; [10]
  AUC(0-inf): 10200 ng·h/mL
  Cmax: 795 ng/mL
  Tmax: 4 h
[4]; 400 mg, Cycle 1 Day 28, 400 mg qd, n = 3, read-out: AUClast, Median
  AUC(0-t): 8920 ng·h/mL
[4]; 800 mg, Cycle 1 Day 1, 800 mg qd, n = 1
  AUC(0-inf): 1490 ng·h/mL
[4]; 800 mg, Cycle 1 Day 1, 800 mg qd, n = 3, read-out: AUC0 − 24, Median
  AUC(0-t): 2560 ng·h/mL
[4]; 800 mg, Cycle 1 Day 1, 800 mg qd, n = 3, read-out: AUClast, Median
  AUC(0-t): 2560 ng·h/mL
[4]; [11]
  Cmax: 154 ng/mL
  Tmax: 8 h
[4]; 800 mg, Cycle 1 Day 8, 800 mg qd, n = 1
  AUC(0-inf): 19900 ng·h/mL
[4]; 800 mg, Cycle 1 Day 8, 800 mg qd, n = 3, read-out: AUC0 − 24, Median
  AUC(0-t): 17300 ng·h/mL
[4]; 800 mg, Cycle 1 Day 8, 800 mg qd, n = 3, read-out: AUClast, Median
  AUC(0-t): 17300 ng·h/mL
[4]; [12]
  Cmax: 1170 ng/mL
  Tmax: 6 h
[4]; 800 mg, Cycle 1 Day 28, 800 mg qd, n = 2
  AUC(0-inf): 13500 ng·h/mL
[4]; 800 mg, Cycle 1 Day 28, 800 mg qd, n = 3, read-out: AUC0 − 24, Median
  AUC(0-t): 25000 ng·h/mL
[4]; 800 mg, Cycle 1 Day 28, 800 mg qd, n = 3, read-out: AUClast, Median
  AUC(0-t): 24900 ng·h/mL
